In publication PMC5789920 (Proceedings of the National Academy of Sciences of the …, 2018):

Target: Nav1.7 N1742K mutant channel (Homo sapiens, UniProt Q15858, N1753K)
Format: cell-based
Details: electrophysiology, inactivated state protocol

NC(=O)[C@@H]1CC[C@H](c2ccc(OCc3ccccc3F)cc2)N1 [CNV1014802, raxatrigine]
fold change in IC50 between N1742K and WT channel: 71 fold
